Patent US8563715B2, “Pyrimidine derivative having cell protecting effect and uses thereof” (Zenyaku Kogyo Kabushikikaisha, priority 2008, dated 2013)

What was measured:
[1] = test system: rat brain homogenate (lipid peroxide production); assay: Antioxidant activity test (rat brain homogenate autoxidation test); format: biochemical; conditions: lipid peroxide production suppression, 2 hours at 37 degrees Celsius, thiobarbituric acid method
Method: The cerebrum was removed from 7 to 11 week old male Wistar rats (Nihon Ikagaku) or male Sprague-Dawley (IGS) rats (Charles River), physiological saline was added, and a 20% brain homogenate was made. 4 μl of test compound dissolved in DMSO was mixed with 200 μl of brain homogenate and 200 μl of PBS (−) (diluted 100 times), incubated for 2 hours at 37 degrees Celsius and shaken at a rate of 160 times per minute, thereby producing a lipid peroxide. After cooling for 5 minutes, the produced lipid peroxide was measured as a thiobarbituric acid reactive substance by using the thiobarbituric acid method. Briefly, 100 μl of 8.1% dodecyl sulfate, 750 μl of 20% acetic acid adjusted to a pH of 3.5, and 750 μl of 0.8% thiobarbituric acid were added, and boiled for 60 minutes, and then cooled. Next, 500 μl of distilled water and 2.5 ml of N-butanol/pyridine (15:1) were added and after 5 minutes of shaking, the supernatant was taken after centrifuging for 10 minutes at 3000 rpm, and the absorbance at 532 nm was measured. The number of examples was 2 examples. Calculation was done of the (absorbance at each concentration/absorbance of a solvent control)×100, and after logit transformation, the lipid peroxide production suppression effect (IC 50 value) was calculated as an indicator of antioxidant activity.

[2] = test system: astrocyte/neuron co-culture; assay: Brain cell damage induced by hydrogen peroxide treatment (LDH assay); format: cell-based; conditions: Rattus norvegicus, hydrogen peroxide (250 μM), 24 hours, read-out: 50% inhibition concentration against cell damage in entire co-culture system (EC50 value)
Method: (§1) The brain was removed from 1 to 2 day old Wistar rats (Charles River) or Sprague-Dawley (IGS) rats (Charles River), and the cerebral cortex including the hippocampus was excised under ice cooling. After this cerebral cortex was minced, it was digested with papain solution (9 U/ml) containing DNase I (30 U/ml) at 37 degrees Celsius for 15 minutes, dispersing the cells. After further carrying out mechanical dispersing by pipetting, it was passed through a cell strainer with a pore size of 70 μm, and a cell suspension was obtained. Cells derived from 1.4 cerebra were seeded on 150 mm tissue culture dish (Iwaki Glass), and primary culture was carried out at 37 degrees Celsius and 5% CO2 using a D-MEM medium (Invitrogen) containing 10% heat-inactivated fetal calf serum (JRH). One day after the start of the culture, the nonadherent cells were removed, and the primary cultured astrocytes were obtained by continuing the culture for 4 to 5 further days. The primary cultured astrocytes were dispersed by trypsin treating, suspended in cryopreservation solution, and cryopreserved.
(§2) After thawing the cryopreserved primary cultured astrocytes, they were seeded on tissue culture plates (Iwaki Glass), and a confluent astrocyte layer was produced by a further 7 days of secondary culture using a D-MEM medium containing 10% heat-inactivated fetal calf serum. Neurons to be used in the co-culture with the astrocyte layer were obtained from fetal rat cerebrum. Briefly, brains were removed from Wistar rats (Charles River) or Sprague-Dawley (IGS) rats (Charles River) of embryonic age 18.5 days, and the cerebral cortex including the hippocampus was excised under ice cooling. After this cerebral cortex was minced, it was digested in papain solution (9 U/ml) containing DNase I (30 U/ml) at 37 degrees Celsius for 15 minutes, dispersing the cells. After further carrying out mechanical dispersing by pipetting, it was passed through a cell strainer with a pore size of 70 μm, and a cell suspension was obtained. This cell suspension was plated at a density of 1.3×10^5 cells/cm^2 on the astrocyte layer, and a co-culture was carried out using D-MEM/F-12 medium (Invitrogen) containing 10% heat-inactivated fetal calf serum and 5% horse serum (Invitrogen). 2 days after the start of the co-culture, cells were treated for 24 hours with 10 μM cytosine arabinoside in order to suppress the excessive cell proliferation of microglia and the like. 8 to 9 days after the start of the co-culture, cells were used for the test. Additionally, using one portion of the cells, immunofluorescent staining and nuclear staining was carried out with astrocyte recognizing antibodies (anti-GFAP) and neuron recognizing antibodies (anti-MAP2), in order to confirm that the present culture system is a co-culture system of astrocytes and neurons.
(§3) An astrocyte/neuron co-culture cultured on a 96 well plate was used in the test. A predetermined concentration of the test substance and hydrogen peroxide (250 μM) was simultaneously added to the cell culture in each well with continuing cultivation, and analysis was done 24 hours after this treatment. Using an LDH Cytotoxicity Detection Kit (Takara Bio), analysis was carried out in accordance with the included instruction manual, and the damage to the entire co-culture system by the hydrogen peroxide treatment and the protective effect (EC 50 value) of the test substance was evaluated. Further, the cell bodies and the neuronal processes of the neurons were observed by microscope, and the neuroprotective effect was evaluated.

[3] = test system: neurons in astrocyte/neuron co-culture; assay: Brain cell damage induced by hydrogen peroxide treatment (neuroprotective effect, microscope observation); format: cell-based; conditions: Rattus norvegicus, hydrogen peroxide (250 μM), 24 hours, read-out: Concentration for complete inhibition of neuronal death
Method: as §1, §2, §3

| Structure (SMILES) | IC50 [1] [nM] | EC50 [2] [nM] | EC100 [3] [µM] |
| --- | --- | --- | --- |
| Oc1ccc(N2CCN(c3nc(N4CCOCC4)cc(N4CCOCC4)n3)CC2)cc1 [Compound 30, 2-[4-(4-hydroxyphenyl)piperazin-1-yl]-4,6-dimorpholinopyrimidine] | 6840 | 3010 | 10 |
| c1ccc(N2CCN(c3cc(N4CCOCC4)nc(N4CCN(c5ccccc5)CC4)n3)CC2)cc1 [Compound 57, 2,4-bis(4-phenylpiperazin-1-yl)-6-morpholinopyrimidine] | 30500 | 5120 | 30 |
| Nc1c(N2CCOCC2)nc(N2CCN(c3ccccc3)CC2)nc1N1CCOCC1 [Compound 63, 5-amino-4,6-dimorpholino-2-(4-phenylpiperazin-1-yl)pyrimidine] | 810 | 8300 | 30 |
| Nc1c(N2CCOCC2)nc(N2CCC(Cc3ccccc3)CC2)nc1N1CCOCC1 [Compound 66, 5-amino-2-(4-benzylpiperidin-1-yl)-4,6-dimorpholinopyrimidine] | 820 | 2860 | 30 |
| CN(C)c1nc(N2CCC(Cc3ccccc3)CC2)nc(N2CCSCC2)c1N [Compound 69, 5-amino-2-(4-benzylpiperidin-1-yl)-4-dimethylamino-6-thiomorpholinopyrimidine] | 1260 | 290 | 3 |
| Nc1c(N2CCOCC2)nc(N2CCN(Cc3ccccc3)CC2)nc1N1CCOCC1 [Compound 73, 5-amino-2-(4-benzylpiperazin-1-yl)-4,6-dimorpholinopyrimidine] | 690 | 10600 | – |
| Nc1c(N2CCOCC2)nc(N2CCN(c3ccccn3)CC2)nc1N1CCOCC1 [Compound 75, 5-amino-4,6-dimorpholino-2-[4-(pyridin-2-yl)-piperazin-1-yl]pyrimidine] | 670 | 9460 | – |
| Fc1c(N2CCOCC2)nc(N2CCN(c3ccccc3)CC2)nc1N1CCOCC1 [Compound 82, 5-fluoro-4,6-dimorpholino-2-(4-phenylpiperazin-1-yl)pyrimidine] | 9200 | 600 | 3 |
| Fc1c(N2CCOCC2)nc(N2CCOCC2)nc1N1CCc2ccccc2C1 [Compound 87, 5-fluoro-4-(3,4-dihydro-1H-isoquinolin-2-yl)-2,6-dimorpholinopyrimidine] | 5780 | 680 | 3 |
| Fc1c(N2CCOCC2)nc(N2Cc3ccccc3C2)nc1N1CCOCC1 [Compound 89, 5-fluoro-2-(isoindolin-2-yl)-4,6-dimorpholinopyrimidine] | 3480 | 530 | 3 |
| CN(C)c1nc(N2CCOCC2)c(F)c(N2CCN(c3ccccn3)CC2)n1 [Compound 91, 2-dimethylamino-5-fluoro-6-morpholino-4-[4-(pyridin-2-yl)piperazin-1-yl]pyrimidine] | 5880 | 880 | 10 |
| Fc1c(N2CCOCC2)nc(N2CCOCC2)nc1N1CCNC(c2ccccc2)C1 (centres unmarked) [Compound 94, 5-fluoro-2,4-dimorpholino-6-(3-phenylpiperazin-1-yl)pyrimidine] | 16000 | 680 | 3 |
| Cc1ccc(N2CCN(c3nc(N4CCOCC4)nc(N4CCOCC4)c3F)CC2)cc1 [Compound 99, 5-fluoro-4-[4-(4-methylphenyl)piperazin-1-yl]-2,6-dimorpholinopyrimidine] | 7510 | 400 | 1 |
| Cc1cccc(N2CCN(c3nc(N4CCOCC4)c(F)c(N4CCOCC4)n3)CC2)c1C [Compound 105, 5-fluoro-4,6-dimorpholino-2-[4-(2,3-xylyl)piperazin-1-yl]pyrimidine] | 2770 | 290 | 1 |
| CN(C)c1nc(N2CCOCC2)c(F)c(N2CCN(c3ccccc3Cl)CC2)n1 [Compound 110, 4-[4-(2-chlorophenyl)piperazin-1-yl]-2-dimethylamino-5-fluoro-6-morpholinopyrimidine] | 3020 | 330 | 1 |
| Fc1c(N2CC=C(c3ccccc3)CC2)nc(N2CCOCC2)nc1N1CCOCC1 [Compound 121, 5-fluoro-2,4-dimorpholino-6-(4-phenyl-1,2,5,6-tetrahydropyridin-1-yl)pyrimidine] | 5050 | 320 | 1 |
| Fc1c(N2CCOCC2)nc(N2CCc3ccccc3C2)nc1N1CCOCC1 [Compound 122, 5-fluoro-4,6-dimorpholino-2-(1,2,3,4-tetrahydro-2H-isoquinolin-2-yl)pyrimidine] | 5480 | 290 | 1 |
| COc1ccc(C=Cc2nc(N3CCOCC3)c(N)c(N3CCOCC3)n2)cc1 [Compound 131, 5-amino-2-[2-(4-methoxyphenyl)vinyl]-4,6-dimorpholinopyrimidine] | 7040 | 8990 | 10 |
| Cn1c(/C=C/c2nc(N3CCOCC3)c(N)c(N3CCOCC3)n2)cc2sccc21 [Compound 133, 5-amino-2-[2-(4-methylthiopheno[1,2-b]pyrrol-5-yl)vinyl]-4,6-dimorpholinopyrimidine] | 1040 | 2030 | 30 |
| Nc1c(N2CCOCC2)nc(/C=C/c2ccc(N3CCCCC3)cc2)nc1N1CCOCC1 [Compound 136, 5-amino-4,6-dimorpholino-2-[2-(4-piperidinophenyl)vinyl]pyrimidine] | 1690 | 730 | 3 |
| Cc1ccc(N2CCN(c3nc(N4CCN(C)CC4)nc(N4CCOCC4)c3F)CC2)cc1 [Compound 151, 5-fluoro-4-[4-(4-methylphenyl)piperazin-1-yl]-2-(4-methylpiperazin-1-yl)-6-morpholinopyrimidine] | 8410 | 980 | – |
| CCOC(=O)C1CSCCN1c1nc(/C=C/c2ccc(OC)cc2)nc(N2CCOCC2)c1N (centres unmarked) [Compound 209, 5-amino-4-(3-ethoxycarbonylthiomorpholin-4-yl)-2-[2-(4-methoxyphenyl)vinyl]-6-morpholinopyrimidine] | – | 1480 | 10 |
| COc1ccc(/C=C/c2nc(N(C)C)c(N)c(N3CCNCC3)n2)cc1 [Compound 210, 5-amino-4-dimethylamino-2-[2-(4-methoxyphenyl)vinyl]-6-(1-piperazinyl)pyrimidine] | – | 4070 | 10 |
| COc1ccc(CCc2nc(N3CCOCC3)c(N)c(N3CCN(S(=O)(=O)N(C)C)CC3)n2)cc1 [Compound 214, 5-amino-4-(4-dimethylsulfamoylpiperazin-1-yl)-2-[2-(4-methoxyphenyl)ethyl]-6-morpholinopyrimidine] | – | 2260 | 10 |
| COc1ccc(/C=C/c2nc(N3CCOCC3)c(N)c(N3CCN(S(=O)(=O)N(C)C)CC3)n2)cc1 [Compound 215, 5-amino-4-(4-dimethylsulfamoylpiperazin-1-yl)-2-[2-(4-methoxyphenyl)vinyl]-6-morpholinopyrimidine] | – | 1610 | 10 |
